Laboratory results reported in US7906282B2, “Synthetic nucleic acid molecule compositions and methods of preparation” (Promega Corporation, priority 2000, dated 2011).
Substitutions are numbered along the chain they refer to. Numbers in names are those of the source. Read-outs that look alike come from different tables or passages of the source.

Legend:
[1] = target: T1, synthetic red click beetle luciferase RD (RDver5.2; YG#81-6G01 variant A224H/S247H/N346I/H348Q/R351G), SEQ ID NO: 222 (Pyrophorus plagiophthalamus, UniProt Q718C1); assay: Km determination with partially purified enzyme (Table 3), RD; assay type: biochemical
T1 construct: C-terminal tail changed
Source text: (§1) The parent click beetle luciferase YG#81-6G1 (“YG”), and the synthetic click beetle luciferase genes GRver5.1 (“GR”), RDver5.2 (“RD”), and RD156-1H9 were cloned into the four pGL3 reporter vectors (Promega Corp.): • pGL3-Basic=no promoter, no enhancer • pGL3-Control=SV40 promoter, SV40 enhancer • pGL3-Enhancer=SV40 enhancer (3′ to luciferase coding sequences) • pGL3-Promoter=SV40 promoter. The primers employed in the assembly of GR and RD synthetic genes facilitated the cloning of those genes into pRAM vectors. To introduce the genes into pGL3 vectors (Promega Corp., Madison, Wis.) for analysis in mammalian cells, each gene in a pRAM vector (pRAM RDver5.1, pRAM GRver5.1, and pRAM RD156-1H9) was amplified to introduce an Nco I site at the 5′ end and an Xba I site at the 3′ end of the gene. The primers for pRAM RDver5.1 and pRAM GRver5.1 were: […]
(§2) Partially purified enzymes expressed from the synthetic genes and the parent gene were employed to determine Km for luciferin and ATP (see Table 3).

[2] = tested on: click beetle luciferase YG#81-6G01 (mutant of wild type LucPplYG, SEQ ID NO: 23), SEQ ID NO: 24; details: vs wild type LucPplYG; cited from earlier work
[3] = tested on: MCF-7 cells; assay: TPA induction of Renilla luciferase co-reporter vectors in transfected MCF-7 cells (Table 13); assay type: cell-based; details: Homo sapiens, MCF7, 24 h, 0.2 nM TPA, vs untreated
Protocol: Experimental treatment sometimes may activate cryptic sites within the gene and cause induction or suppression of the co-reporter expression, which would compromise its function as co-reporter for normalization of transfection efficiencies. One example is that TPA induces expression of co-reporter vectors harboring the wild-type gene when transfecting MCF-7 cells. 500 ng pRL-TK (native), 5 μg native and synthetic pRG-B, 2.5 μg native and synthetic pRG-TK were transfected per well of MCF-7 cells. 100 ng/well pGL3-control (firefly luc+) was co-transfected with all RL plasmids. Carrier DNA, pUC19, was used to bring the total DNA transfected to 5.1 μg/well. 15.3 μl TransFast Transfection Reagent (Promega Corp., Madison, Wis.) was added per well. Sixteen hours later, cells were trypsinized, pooled and split into six wells of a 6-well dish and allowed to attach to the well for 8 hours. Three wells were then treated with the 0.2 nM of the tumor promoter, TPA (phorbol-12-myristate-13-acetate, Calbiochem #524400-S), and three wells were mock treated with 20 μl DMSO. Cells were harvested with 0.4 ml Passive Lysis Buffer 24 hours post TPA addition.

[4] = target: T2, synthetic red click beetle luciferase RDver5.2 (YG#81-6G01 variant A224H/S247H/N346I/H348Q/R351G), SEQ ID NO: 222 (Pyrophorus plagiophthalamus, UniProt Q718C1); assay: Km for luciferin, lysates of bacterial cells (Table 6), RDver5.2; assay type: biochemical; details: read-out: Km Luciferin, CCLR lysate diluted 1:10, HEPES pH 7.8
T2 construct: C-terminal tail changed; lysate of bacterial cells
Protocol: (§3) The Km values for luciferin and the luminescence intensity relative to RDver5.2 were determined for all three clones in several independent experiments. All cells samples were processed with CCLR lysis buffer (E1483, Promega Corp., Madison, Wis.) and diluted 1:10 into buffer (25 mM HEPES pH 7.8, 5% glycerol, 1 mg/ml BSA, 150 mM NaCl). Table 7 summarizes the results (Lum: luminescence values were normalized to optical density; measurements for independent experiments are separated by forward slashes) from expression in bacterial cells. RD156-1H9, the clone with the highest luminescence intensity (5 to 10-fold increase) also has an about 2-fold higher Km for luciferin.

[5] = target: T3, click beetle luciferase RDver5.2 variant RD156-0B4 (Pyrophorus plagiophthalamus, UniProt Q718C1, A224Y/A287S/C127T/C60V/F45V, form not given/H348Q/I288V/I91V/K85T/L262F/N249T/N346I/S247H/V325A/V389I/Y183F); assay: Km for luciferin, lysates of bacterial cells (Table 6), RD156-0B4; assay type: biochemical; details: read-out: Km Luciferin, CCLR lysate diluted 1:10, HEPES pH 7.8
T3 construct: lysate of bacterial cells
Protocol: (§4) Protocols and procedures used for the directed evolution are detailed in see PCT/WO9914336. DNA from the four clones with lower Km was combined and three libraries of random mutants were produced. The libraries were screened with the robot and clones with the highest LI values were selected. These clones were shuffled together and another robotic screen was completed with an incubation temperature of 46° C. The three clones with the highest LI values were RD156-0B4, RD156-1A5, and RD156-1H9.
as §3

[6] = target: T4, click beetle luciferase RDver5.2 variant RD156-1H9 (M2I/S349T/K488T/E538V), SEQ ID NO: 223 (Pyrophorus plagiophthalamus, UniProt Q718C1); assay type: biochemical; details: for Km: read-out: Km Luciferin, CCLR lysate diluted 1:10, HEPES pH 7.8
T4 construct: C-terminal tail changed; lysate of bacterial cells
Protocol: Protocols and procedures used for the directed evolution are detailed in see PCT/WO9914336. […] The libraries were screened with the robot and clones with the highest LI values were selected. These clones were shuffled together and another robotic screen was completed with an incubation temperature of 46° C.
as §3, with “cells.” for “cells. RD156-1H9, the clone with the highest luminescence intensity (5 to 10-fold increase) also has an about 2-fold higher Km for luciferin.”

[7] = target: T5, click beetle luciferase RDver5.2 variant RD156-1A5 (Pyrophorus plagiophthalamus, UniProt Q718C1, A224Y/A287S/C127T/C60V/F45V, form not given/H348Q/I288V/I91V/K85T/L262F/N249T/N346I/S247H/V325A/V389I/Y183F); assay: Km for luciferin, lysates of bacterial cells (Table 6), RD156-1A5; assay type: biochemical; details: read-out: Km Luciferin, CCLR lysate diluted 1:10, HEPES pH 7.8
T5 construct: lysate of bacterial cells
Protocol: as §4, §3

[8] = substrate: Nc1ncnc2c1ncn2[C@@H]1O[C@H](COP(=O)(O)OP(=O)(O)OP(=O)(O)O)[C@@H](O)[C@H]1O; assay: Km determination with partially purified enzyme (Table 3), YG parent; assay type: biochemical, Pyrophorus plagiophthalamus; details: other: partially purified enzyme
Source text: as §2

[9] = substrate: O=C(O)[C@H]1CSC(c2nc3ccc(O)cc3s2)=N1; assay: as above; assay type: biochemical, Pyrophorus plagiophthalamus; details: other: partially purified enzyme
Source text: as §2

[10] = substrate: Nc1ncnc2c1ncn2[C@@H]1O[C@H](COP(=O)(O)OP(=O)(O)OP(=O)(O)O)[C@@H](O)[C@H]1O; assay: Km determination with partially purified enzyme (Table 3), GR; assay type: biochemical, Pyrophorus plagiophthalamus; details: other: partially purified enzyme
Source text: as §1, §2

[11] = substrate: O=C(O)[C@H]1CSC(c2nc3ccc(O)cc3s2)=N1; assay: as above; assay type: biochemical, Pyrophorus plagiophthalamus; details: other: partially purified enzyme
Source text: as §1, §2

[12] = substrate: O=C(O)[C@H]1CSC(c2nc3ccc(O)cc3s2)=N1; assay: Km for luciferin, lysates of bacterial cells (Table 6), GRver5.1; assay type: biochemical, Pyrophorus plagiophthalamus
Protocol: as §3

T4 sequence (Q718C1 entry or part of it, stated change not applied): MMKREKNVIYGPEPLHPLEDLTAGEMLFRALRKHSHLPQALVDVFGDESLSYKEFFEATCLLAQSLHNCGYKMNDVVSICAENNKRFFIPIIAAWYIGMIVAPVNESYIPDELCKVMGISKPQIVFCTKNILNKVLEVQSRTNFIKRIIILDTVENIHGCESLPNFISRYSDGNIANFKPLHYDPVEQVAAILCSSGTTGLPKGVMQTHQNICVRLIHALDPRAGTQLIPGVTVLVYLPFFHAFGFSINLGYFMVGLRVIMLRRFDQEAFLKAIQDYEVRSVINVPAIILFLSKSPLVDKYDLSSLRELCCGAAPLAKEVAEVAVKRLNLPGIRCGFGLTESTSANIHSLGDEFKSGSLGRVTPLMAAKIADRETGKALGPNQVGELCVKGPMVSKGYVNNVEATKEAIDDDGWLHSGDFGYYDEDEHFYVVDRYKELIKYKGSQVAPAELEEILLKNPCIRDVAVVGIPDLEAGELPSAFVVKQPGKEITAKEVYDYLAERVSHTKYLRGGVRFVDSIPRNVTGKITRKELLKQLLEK
T2 sequence (Q718C1 entry or part of it, stated change not applied): as above
T1 sequence (Q718C1 entry or part of it, stated change not applied): as above

In the case of `Nc1ncnc2c1ncn2[C@@H]1O[C@H](COP(=O)(O)OP(=O)(O)OP(=O)(O)O)[C@@H](O)[C@H]1O` [ATP], the Km ([1]; read-out: KM (ATP)) is listed as 46 µM and the “KM for ATP compared to the wild type” value [2] is listed as “lower”.

For `CCCCCCCCCCCCCC(=O)O[C@@H]1[C@@H](C)[C@@]2(O)[C@@H](C=C(CO)C[C@]3(O)C(=O)C(C)=C[C@@H]23)[C@@H]2C(C)(C)[C@]12OC(C)=O` [TPA, phorbol-12-myristate-13-acetate], the fold induction ([3]; pRG-B (final, synthetic Renilla gene)) was 1.47, the fold induction ([3]; pRG-B (native Renilla gene)) was 8 and the fold induction ([3]; pRG-tk (final, synthetic Renilla gene)) was 0.88. The fold induction ([3]; pRG-tk (native Renilla gene)) was 4.36 and the fold induction ([3]; pRL-tk (native Renilla gene)) was 4.4.

Molecule `O=C(O)[C@H]1CSC(c2nc3ccc(O)cc3s2)=N1` [luciferin] has a Km ([1]; read-out: KM (LH2)) of 24.5 µM, a Km ([4]; prep #1, independent experiment 1) of 12 µM and a Km ([4]; prep #1, independent experiment 2) of 14 µM. For the same molecule, the Km ([4]; prep #1, independent experiment 3) was 14 µM, the Km ([4]; prep #2, independent experiment 1) was 40 µM and the Km ([4]; prep #2, independent experiment 2) was 50 µM. The “KM for luciferin compared to the wild type” value [2] was “lower”, the Km ([5]; independent experiment 1) was 8 µM and the Km ([5]; independent experiment 2) was 10 µM. For the same molecule, the Km ([6]; independent experiment 1) was 20 µM, the Km ([6]; independent experiment 2) was 23 µM and the Km ([6]; independent experiment 3) was 23 µM. The “luciferin K, fold higher” value ([6]; relative to GRver5.1) was “approximately 40 fold”, the “Km for luciferin, fold higher” value ([6]; relative to RDver5.2) was “about 2 fold” and the Km ([7]; independent experiment 1) was 13 µM. For the same molecule, the Km ([7]; independent experiment 2) was 13 µM.

B1: click beetle (Pyrophorus plagiophthalamus) luciferase YG#81-6G01 (YG parent, mutant of wild type LucPplYG), SEQ ID NO: 24 (Pyrophorus plagiophthalamus; … (protein)
chain: MMKREKNVIYGPEPLHPLEDLTAGEMLFRALRKHSHLPQALVDVVGDESLSYKEFFEATVLLAQSLHNCGYKMNDVVSICAENNTRFFIPVIAAWYIGMIVAPVNESYIPDELCKVMGISKPQIVFTTKNILNKVLEVQSRTNFIKRIIILDTVENIHGCESLPNFISRYSDGNIANFKPLHFDPVEQVAAILCSSGTTGLPKGVMQTHQNICVRLIHALDPRAGTQLIPGVTVLVYLPFFHAFGFSITLGYFMVGLRVIMFRRFDQEAFLKAIQDYEVRSVINVPSVILFLSKSPLVDKYDLSSLRELCCGAAPLAKEVAEVAAKRLNLPGIRCGFGLTESTSANIHSLRDEFKSGSLGRVTPLMAAKIADRETGKALGPNQVGELCIKGPMVSKGYVNNVEATKEAIDDDGWLHSGDFGYYDEDEHFYVVDRYKELIKYKGSQVAPAELEEILLKNPCIRDVAVVGIPDLEAGELPSAFVVKQPGKEITAKEVYDYLAERVSHTKYLRGGVRFVDSIPRNVTGKITRKELLKQLLEKAGG
notes: wild-type residues 540-543 replaced by 3 other residues
With B1 the Km [8] was 17 μM μM and the Km [9] was 2 μM μM.

B2: synthetic green click beetle luciferase GR (GRver5.1; YG#81-6G01 variant A224V), SEQ ID NO: 31 (Pyrophorus plagiophthalamus; … (protein)
chain: B1 chain with A224V
notes: C-terminal tail changed
For B2, the Km [10] was 25 μM μM and the Km [11] was 1.3 μM μM.

B3: synthetic green click beetle luciferase GRver5.1 (YG#81-6G01 variant A224V), SEQ ID NO: 31 (Pyrophorus plagiophthalamus; … (protein)
chain: B1 chain with A224V
notes: C-terminal tail changed; lysate of bacterial cells
With B3 the Km ([12]; other: prep #1, CCLR lysate diluted 1:10, HEPES pH 7.8) was 0.5 µM and the Km ([12]; other: prep #2, CCLR lysate diluted 1:10, HEPES pH 7.8) was 3 µM.
